Details: for viscosity: 101.3 kPa; for viscosity / mass density: Liquid; for surface tension liquid-gas: Ring tensiometer

CCO [ethanol]
Details | surface tension liquid-gas [mN/m] | viscosity [mPa·s]
273.15 K | – | 1.832
274.77 K | 23.59 | –
274.87 K | 23.54 | –
278.6 K | – | 1.649
280.56 K | 23.15 | 1.537
281.05 K | 22.95 | –
281.17 K | 23.09 | 1.527
284.25 K | 22.78 | 1.455
288.21 K | 22.7 | 1.338
288.23 K | 22.61 | –
288.65 K | 22.63 | –
293.15 K | 22.36 | 1.203
294.19 K | 22.4 | 1.192
298.15 K | 22.25 | 1.096
298.41 K | 22.07 | 1.088
298.55 K | 22.06 | 1.088
303.15 K | 21.63 | 1.002
303.2 K | 21.66 | 1
308.23 K | 21.33 | 0.914
311.79 K | 21.09 | 0.855
318.99 K | 20.2 | 0.756
321.15 K | – | 0.73
323.15 K | – | 0.715
328.15 K | – | 0.656
333.15 K | – | 0.602
338.16 K | – | 0.571
343.15 K | – | 0.504
346.15 K | – | 0.488

Details | mass density [kg/m3]
278.15 K, 100 kPa | 803.3
278.15 K, 2000 kPa | 805.9
278.15 K, 4000 kPa | 807.3
278.15 K, 6000 kPa | 809.2
278.15 K, 8000 kPa | 810.6
278.15 K, 10000 kPa | 812.7
278.15 K, 15000 kPa | 815.8
278.15 K, 20000 kPa | 821
278.15 K, 25000 kPa | 823.4
278.15 K, 30000 kPa | 823.8
278.15 K, 35000 kPa | 825.8
283.15 K, 100 kPa | 799.5
283.15 K, 2000 kPa | 801.7
283.15 K, 4000 kPa | 803
283.15 K, 6000 kPa | 805.1
283.15 K, 8000 kPa | 806.6
283.15 K, 10000 kPa | 808.5
283.15 K, 15000 kPa | 811.8
283.15 K, 20000 kPa | 816.4
283.15 K, 25000 kPa | 818.9
283.15 K, 30000 kPa | 819.9
283.15 K, 35000 kPa | 822.2
288.15 K, 100 kPa | 795.3
288.15 K, 2000 kPa | 797.5
288.15 K, 4000 kPa | 798.8
288.15 K, 6000 kPa | 800.9
288.15 K, 8000 kPa | 802.6
288.15 K, 10000 kPa | 804.2
288.15 K, 15000 kPa | 807.8
288.15 K, 20000 kPa | 811.9
288.15 K, 25000 kPa | 814.5
288.15 K, 30000 kPa | 816
288.15 K, 35000 kPa | 818.6
293.15 K, 100 kPa | 791.2
293.15 K, 2000 kPa | 793.2
293.15 K, 4000 kPa | 794.5
293.15 K, 6000 kPa | 796.7
293.15 K, 8000 kPa | 798.5
293.15 K, 10000 kPa | 800
293.15 K, 15000 kPa | 803.7
293.15 K, 20000 kPa | 807.4
293.15 K, 25000 kPa | 810.2
293.15 K, 30000 kPa | 812.2
293.15 K, 35000 kPa | 814.9
298.15 K, 100 kPa | 785
298.15 K, 2000 kPa | 788.8
298.15 K, 4000 kPa | 790.3
298.15 K, 6000 kPa | 792.5
298.15 K, 8000 kPa | 794.3
298.15 K, 10000 kPa | 795.8
298.15 K, 15000 kPa | 799.7
298.15 K, 20000 kPa | 803.1
298.15 K, 25000 kPa | 806
298.15 K, 30000 kPa | 808.3
298.15 K, 35000 kPa | 811.3
303.15 K, 100 kPa | 781.6
303.15 K, 2000 kPa | 784.4
303.15 K, 4000 kPa | 785.9
303.15 K, 6000 kPa | 788.2
303.15 K, 8000 kPa | 790.2
303.15 K, 10000 kPa | 791.6
303.15 K, 15000 kPa | 795.6
303.15 K, 20000 kPa | 798.8
303.15 K, 25000 kPa | 801.8
303.15 K, 30000 kPa | 804.5
303.15 K, 35000 kPa | 807.6
308.15 K, 100 kPa | 777.9
308.15 K, 2000 kPa | 780
308.15 K, 4000 kPa | 781.6
308.15 K, 6000 kPa | 783.9
308.15 K, 8000 kPa | 785.9
308.15 K, 10000 kPa | 787.3
308.15 K, 15000 kPa | 791.5
308.15 K, 20000 kPa | 794.7
308.15 K, 25000 kPa | 797.8
308.15 K, 30000 kPa | 800.7
308.15 K, 35000 kPa | 803.9
313.15 K, 100 kPa | 774
313.15 K, 2000 kPa | 775.4
313.15 K, 4000 kPa | 777.2
313.15 K, 6000 kPa | 779.5
313.15 K, 8000 kPa | 781.7
313.15 K, 10000 kPa | 783.1
313.15 K, 15000 kPa | 787.4
313.15 K, 20000 kPa | 790.6
313.15 K, 25000 kPa | 793.8
313.15 K, 30000 kPa | 797
313.15 K, 35000 kPa | 800.2
318.15 K, 100 kPa | 769.7
318.15 K, 2000 kPa | 770.8
318.15 K, 4000 kPa | 772.8
318.15 K, 6000 kPa | 775.1
318.15 K, 8000 kPa | 777.3
318.15 K, 10000 kPa | 778.8
318.15 K, 15000 kPa | 783.2
318.15 K, 20000 kPa | 786.5
318.15 K, 25000 kPa | 789.9
318.15 K, 30000 kPa | 793.2
318.15 K, 35000 kPa | 796.5
323.15 K, 100 kPa | 765.2
323.15 K, 2000 kPa | 766.2
323.15 K, 4000 kPa | 768.4
323.15 K, 6000 kPa | 770.7
323.15 K, 8000 kPa | 772.9
323.15 K, 10000 kPa | 774.5
323.15 K, 15000 kPa | 779
323.15 K, 20000 kPa | 782.6
323.15 K, 25000 kPa | 786.1
323.15 K, 30000 kPa | 789.5
323.15 K, 35000 kPa | 792.8
328.15 K, 100 kPa | 760.4
328.15 K, 2000 kPa | 761.5
328.15 K, 4000 kPa | 763.9
328.15 K, 6000 kPa | 766.2
328.15 K, 8000 kPa | 768.5
328.15 K, 10000 kPa | 770.3
328.15 K, 15000 kPa | 774.8
328.15 K, 20000 kPa | 778.7
328.15 K, 25000 kPa | 782.3
328.15 K, 30000 kPa | 785.7
328.15 K, 35000 kPa | 789
333.15 K, 100 kPa | 755.4
333.15 K, 2000 kPa | 756.7
333.15 K, 4000 kPa | 759.4
333.15 K, 6000 kPa | 761.6
333.15 K, 8000 kPa | 764
333.15 K, 10000 kPa | 766
333.15 K, 15000 kPa | 770.6
333.15 K, 20000 kPa | 774.9
333.15 K, 25000 kPa | 778.6
333.15 K, 30000 kPa | 782
333.15 K, 35000 kPa | 785.2
338.15 K, 100 kPa | 750
338.15 K, 2000 kPa | 751.8
338.15 K, 4000 kPa | 754.9
338.15 K, 6000 kPa | 757
338.15 K, 8000 kPa | 759.5
338.15 K, 10000 kPa | 761.7
338.15 K, 15000 kPa | 766.3
338.15 K, 20000 kPa | 771.2
338.15 K, 25000 kPa | 775
338.15 K, 30000 kPa | 778.3
338.15 K, 35000 kPa | 781.4
343.15 K, 100 kPa | 744.3
343.15 K, 2000 kPa | 746.8
343.15 K, 4000 kPa | 750.3
343.15 K, 6000 kPa | 752.3
343.15 K, 8000 kPa | 754.9
343.15 K, 10000 kPa | 757.3
343.15 K, 15000 kPa | 762
343.15 K, 20000 kPa | 767.6
343.15 K, 25000 kPa | 771.5
343.15 K, 30000 kPa | 774.6
343.15 K, 35000 kPa | 777.6
348.15 K, 100 kPa | 738.4
348.15 K, 2000 kPa | 741.8
348.15 K, 4000 kPa | 745.6
348.15 K, 6000 kPa | 747.6
348.15 K, 8000 kPa | 750.2
348.15 K, 10000 kPa | 753
348.15 K, 15000 kPa | 757.7
348.15 K, 20000 kPa | 764
348.15 K, 25000 kPa | 768
348.15 K, 30000 kPa | 770.9
348.15 K, 35000 kPa | 773.7
353.15 K, 2000 kPa | 736.7
353.15 K, 4000 kPa | 741
353.15 K, 6000 kPa | 742.8
353.15 K, 8000 kPa | 745.5
353.15 K, 10000 kPa | 748.6
353.15 K, 15000 kPa | 753.3
353.15 K, 20000 kPa | 760.5
353.15 K, 25000 kPa | 764.6
353.15 K, 30000 kPa | 767.2
353.15 K, 35000 kPa | 769.9
